Laboratory results published in article PMC11631053, “A receptor-based assay to study the sweet and bitter tastes of sweeteners and binary sweet blends: the SWEET project” (Chemical Senses, 2024).

What was measured:
TAS2R38 = target: T1, TAS2R38 (Homo sapiens, UniProt P59533); test: Calcium mobilization assay, HEK293T-Gα16gust44 cells expressing TAS2R38; details: maximal concentration tested: sucralose 100 mM, neotame 30 µM, Ace-K 300 mM, RebA 4 mM, RebM 4 mM, mogroside V 5 mM, erythritol 200 mM, D-allulose 500 mM, thaumatin 100 mM
T1 sequence (P59533 1-333): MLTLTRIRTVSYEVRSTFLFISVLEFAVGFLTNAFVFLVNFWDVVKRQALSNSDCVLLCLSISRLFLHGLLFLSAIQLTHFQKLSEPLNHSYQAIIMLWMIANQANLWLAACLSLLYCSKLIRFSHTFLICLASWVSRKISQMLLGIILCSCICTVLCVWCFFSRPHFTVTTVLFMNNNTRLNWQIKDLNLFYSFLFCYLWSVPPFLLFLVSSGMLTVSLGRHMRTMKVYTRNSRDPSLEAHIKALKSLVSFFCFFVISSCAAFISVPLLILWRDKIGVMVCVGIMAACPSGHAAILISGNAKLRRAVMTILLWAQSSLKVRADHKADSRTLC
Description: Different concentration ranges were tested depending on the injected sweet compound. […] All of the concentration-receptor combinations were measured in triplicate, and each experiment was repeated at least 3 times. The Ca^2+ change was expressed as a fractional change in fluorescent light intensity: ΔF/F = (F − F0)/F0, where F was the fluorescent light intensity at each point, and F0 was the value of fluorescent light emitted prior to stimulus application. To calculate dose–response relationships, the changes in fluorescence upon stimulus application were averaged, mock-subtracted and baseline-corrected. The resulting obtained dose–response data were adjusted by using a 4-parameter logistic equation.

TAS2R38-PAV = TAS2R38-PAV (Homo sapiens, UniProt P59533, A49P/I296V); test: Calcium mobilization assay, HEK293T-Gα16gust44 cells expressing TAS2R38-PAV
Sequence of TAS2R38-PAV (P59533 whole entry A49P/I296V): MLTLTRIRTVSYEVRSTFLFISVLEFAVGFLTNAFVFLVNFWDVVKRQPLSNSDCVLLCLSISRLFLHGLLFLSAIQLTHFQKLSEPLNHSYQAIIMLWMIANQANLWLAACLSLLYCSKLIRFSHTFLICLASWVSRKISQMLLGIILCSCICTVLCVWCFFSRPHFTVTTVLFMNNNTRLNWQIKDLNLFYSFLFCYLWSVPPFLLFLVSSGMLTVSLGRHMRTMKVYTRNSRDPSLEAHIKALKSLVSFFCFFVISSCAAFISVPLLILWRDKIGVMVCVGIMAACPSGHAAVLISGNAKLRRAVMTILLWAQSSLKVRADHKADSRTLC
Description: (§1) Different concentration ranges were tested depending on the injected sweet compound. […] All of the concentration-receptor combinations were measured in triplicate, and each experiment was repeated at least 3 times. The Ca^2+ change was expressed as a fractional change in fluorescent light intensity: ΔF/F = (F − F0)/F0, where F was the fluorescent light intensity at each point, and F0 was the value of fluorescent light emitted prior to stimulus application. To calculate dose–response relationships, the changes in fluorescence upon stimulus application were averaged, mock-subtracted and baseline-corrected. The resulting obtained dose–response data were adjusted by using a 4-parameter logistic equation. The half-maximal effective concentration (EC50) was calculated by using SigmaPlot software (Systat Software, San Jose, CA, USA) as described in supplemental Supplementary Figs. S1, S2, and S3.

TAS2R38-AVI = TAS2R38-AVI (Homo sapiens, UniProt P59533, A262V); test: Calcium mobilization assay, HEK293T-Gα16gust44 cells expressing TAS2R38-AVI
Sequence of TAS2R38-AVI (P59533 whole entry A262V): as the sequence (P59533 whole entry A49P/I296V) above, with P49A, A262V, V296I counted along it
Description: as §1

Response of TAS2R38 (TAS2R38)	Molecule	other results
−	COC(=O)[C@H](Cc1ccccc1)NC(=O)[C@H](CC(=O)O)NCCC(C)(C)C [Neotame]	
−	OC[C@@H](O)[C@@H](O)CO [Erythritol, erythritol]	
−	CC1=CC(=O)NS(=O)(=O)O1 [Ace-K, acesulfame-K]	
−	C=C1C[C@@]23CC[C@H]4[C@@](C)(CCC[C@@]4(C)C(=O)O[C@@H]4O[C@H](CO)[C@@H](O)[C@H](O[C@@H]5O[C@H](CO)[C@@H](O)[C@H](O)[C@H]5O)[C@H]4O[C@@H]4O[C@H](CO)[C@@H](O)[C@H](O)[C@H]4O)[C@@H]2CC[C@]1(O[C@@H]1O[C@H](CO)[C@@H](O)[C@H](O[C@@H]2O[C@H](CO)[C@@H](O)[C@H](O)[C@H]2O)[C@H]1O[C@@H]1O[C@H](CO)[C@@H](O)[C@H](O)[C@H]1O)C3 [RebM, Rebaudioside M]	
−	thaumatin	
−	OC[C@H]1O[C@H](O[C@]2(CCl)O[C@H](CCl)[C@@H](O)[C@@H]2O)[C@H](O)[C@@H](O)[C@H]1Cl [Sucralose, sucralose]	

Molecule	Response of TAS2R38 (TAS2R38)	other results
C[C@H](CC[C@@H](O[C@@H]1O[C@H](CO[C@@H]2O[C@H](CO)[C@@H](O)[C@H](O)[C@H]2O)[C@@H](O)[C@H](O)[C@H]1O[C@@H]1O[C@H](CO)[C@@H](O)[C@H](O)[C@H]1O)C(C)(C)O)[C@H]1CC[C@@]2(C)[C@@H]3CC=C4[C@@H](CC[C@H](O[C@@H]5O[C@H](CO[C@@H]6O[C@H](CO)[C@@H](O)[C@H](O)[C@H]6O)[C@@H](O)[C@H](O)[C@H]5O)C4(C)C)[C@]3(C)[C@H](O)C[C@]12C [Mogroside V, mogroside V]	+	EC50 (TAS2R38-PAV; read-out: TAS2R38-PAV EC50, text prints TAS2R38): 253 ± 139 µM
O=C(CO)[C@H](O)[C@H](O)[C@H](O)CO [D-allulose]	+	concentrations at which TAS2R38-AVI was activated (TAS2R38-AVI): > 300 mM; concentrations at which TAS2R38-PAV was activated (TAS2R38-PAV): > 300 mM
